Source: US11389452B2, “Methods for increasing blood plasma 2′-deoxyuridine (dUrd) and thymidylate synthase inhibition” (Isofol Medical AB, priority 2017, dated 2022)

Assays:
[1] = tested on: TS; conditions: cited from earlier work
[2] = tested on: colorectal cancer; conditions: cited from earlier work
[3] = biological target: T1, thymidylate synthase (TS) (Homo sapiens, UniProt P04818); assay: Incremental plasma dUrd (surrogate marker of TS inhibition) 24 hours after bolus 5-FU plus folate in mCRC patients, by LC-MS/MS; type: in vivo; conditions: for Mean (t24 − t0) plasma dUrd: 24 hours
T1 construct: endogenous in cells; host or cells: patients with metastatic colorectal cancer (in vivo); plasma sampled
T1 sequence (P04818 2-313 limits assumed): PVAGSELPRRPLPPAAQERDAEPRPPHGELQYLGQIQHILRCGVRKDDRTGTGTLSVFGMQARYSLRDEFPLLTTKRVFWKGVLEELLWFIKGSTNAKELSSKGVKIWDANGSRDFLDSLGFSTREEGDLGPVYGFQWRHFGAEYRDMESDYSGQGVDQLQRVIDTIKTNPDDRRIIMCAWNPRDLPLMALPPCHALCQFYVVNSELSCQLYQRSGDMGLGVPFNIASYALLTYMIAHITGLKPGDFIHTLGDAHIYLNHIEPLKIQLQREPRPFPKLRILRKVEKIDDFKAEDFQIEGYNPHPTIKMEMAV
Procedure: The safety and efficacy of [6R]-5,10-methylenetetrahydrofolate ([6R]-MTHF) is analyzed in an open-label, multiple-site, Phase I/II Dose Cohort Trial (ISO-CC-005) in patients with stage IV colorectal cancer (mCRC) to determine the safe and tolerable i.v. bolus dose of 6R-MTHF in combination with standard doses of 5-FU (500 mg/m^2) alone or in combination with a fixed dose of Bevacizumab, Oxaliplatin or Irinotecan in patients with stage IV colorectal cancer. Among groups of patients (n≥3) ascending 6R-MTHF doses of 30-240 mg/m^2 BSA are being evaluated in the presence of various permutations of the cytotoxics, 5-FU alone or 5-FU plus oxaliplatin, bevacizumab or irinotecan given at standard dose levels. The study is expected to be completed by year end 2017. A summary of the study design and each study arm is depicted below in Table 1.
In Gothenburg, for almost two decades, clinical, treatment and outcomes data on all patients with CRC have been collected. Plasma and tissue samples have been stored in a biobank under appropriate physical conditions for long term storage. The database and the biobank operate under the auspices of the relevant ethical and regulatory permissions. Patients having been treated with the standard 5-FU dose, 500 mg/m^2 plus i.v. bolus LV, 60 mg/m^2 (equivalent to 30 mg/m^2 of LLV) were randomly drawn from the databank.
The present study is a historical group comparison study. All patients have been treated with a standard dose of 500 mg 5-FU given as a bolus injection plus the respective folate 6R-MTHF or LV also given as bolus injections.
All patients have been measured during two consecutive treatment cycles with 5-FU. Values for dUrd were measured immediately before injection of 5-FU (t0) and after 24 hours (t24). Mean values and standard deviations for differences between t24 and t0 were calculated for the patients on each dose level of 30 and 60 mg/m^2 6R-MTHF, respectively. Some values have also been assayed and calculated for 240 mg/m^26R-MTHF.
Twenty-four patients with metastatic colorectal cancer (mCRC) treated with 5-FU plus 60 mg/m^2 LV were drawn at random from the data base and levels of dUrd were determined at t0 and t24 from two treatment cycles for each patient and the mean values and standard deviations for the differences between t24 and t0 were calculated in the same way as for the 6R-MTHF patients. Since LV is a 50:50 mixture of the natural (1-formyl-tetrahydrofolate) and unnatural (d-formyl-tetrahydrofolate) isomers the active isomer constitutes one half of the LV doses given. The molecular weights for LV and 6R-MTHF are very similar and therefore 60 mg of LV may be considered as equimolar with 30 mg of 6R-MTHF.
The differences between all four groups were tested by means of the Friedman two-way analysis of variance and thereafter the difference between the two equimolar groups LV 60 mg/m^2 and 6R-MTHF 30 mg/m^2 was tested by means of the Mann-Whitney U test. P-values less than 0.05 were considered significant.
Plasma dUrd was determined by a method comprising liquid chromatography followed by tandem mass spectrometry broadly summarized as follows. Plasma samples were removed from −80° C. freezer, trichloroacetic acid was added to the plasma, and the samples mixed and centrifuged. The supernatant was filtered in a 10 kDa molecular weight cut-off membrane filter and again centrifuged for 30 min. The solution at the bottom of the tube was then ready for LC-MS/MS analysis. […]

[4] = tested on: pancreas cancer; conditions: CoFactor combined with 5-FU, phase I/II trial; cited from earlier work

SMILES: Nc1nc2c(c(=O)[nH]1)N1CN(c3ccc(C(=O)N[C@@H](CCC(=O)O)C(=O)O)cc3)C[C@@H]1CN2 (single isomer, unassigned) [(6S)-isomer]
- effect on the natural [6R]-isomer as co-substrate for TS [1]: partial competitive inhibitor

SMILES: O=c1[nH]cc(F)c(=O)[nH]1 [5-FU, 5-Fluorouracil]
- overall response rate ([2]; 5-FU alone): 10-15%

SMILES: Nc1nc2c(c(=O)[nH]1)N1CN(c3ccc(C(=O)N[C@@H](CCC(=O)O)C(=O)O)cc3)C[C@H]1CN2 [6R-MTHF, [6R]-5,10-methylenetetrahydrofolic acid]
- Mean (t24 − t0) plasma dUrd ([3]; 6R-MTHF 30 mg/m2 BSA bolus with 5-FU 500 mg/m2 bolus, 18 cycles): 74.7 pmol/mL
- Mean (t24 − t0) plasma dUrd ([3]; 6R-MTHF 60 mg/m2 BSA bolus with 5-FU 500 mg/m2 bolus, 16 cycles): 91.8 pmol/mL
- Mean (t24 − t0) plasma dUrd ([3]; 6R-MTHF 240 mg/m2 BSA bolus with 5-FU 500 mg/m2 bolus, 4 cycles): 99.9 pmol/mL
- level of dUrd compared with equimolar LV ([3]; [6R]-MTHF 30 mg/m2 vs LV 60 mg/m2, together with 5-FU, p=0.03): significantly higher level of dUrd

SMILES: Nc1nc(=O)c2c([nH]1)NCC1CN(c3ccc(C(=O)N[C@@H](CCC(=O)[O-])C(=O)[O-])cc3)CN21.[Ca+2] (stereo partly drawn) [CoFactor®, (dl)-5,10,-methylenepteroyl-monoglutamate calcium salt]
- response rate ([2]; Phase II trial, previously untreated metastatic colorectal cancer): 35%
- efficacy and safety compared with leucovorin ([2]; Phase IIb study in colorectal cancer): not demonstrated to be more efficacious than leucovorin
- clinical benefit (stable disease or tumor response), share of patients [4]: 40%

SMILES: Nc1nc(=O)c2c([nH]1)NC[C@H](CNc1ccc(C(=O)N[C@@H](CCC(=O)O)C(=O)O)cc1)N2C=O [LLV]
- Mean (t24 − t0) plasma dUrd ([3]; active dose 30 mg/m2 BSA LLV, given as 60 mg/m2 d,l-LV bolus, with 5-FU 500 mg/m2 bolus, 48 cycles): 48.7 pmol/mL

SMILES: Nc1nc2c(c(=O)[nH]1)N(C=O)C(CNc1ccc(C(=O)N[C@@H](CCC(=O)O)C(=O)O)cc1)CN2 (some centres unmarked) [LV, 5-formyl tetrahydrofolate]
- overall response rates ([2]; LV added to 5-FU): over 20%
